The results in this text go back to patent publication US20200016159A1, “N3-CYCLICALLY SUBSTITUTED THIENOURACILS AND USE THEREOF” (Bayer Aktiengesellschaft, priority 2016, published 2020).

In the assay the target is T1, human adenosine A2b receptor (Homo sapiens, UniProt P29275).
T1 sequence (P29275 1-332): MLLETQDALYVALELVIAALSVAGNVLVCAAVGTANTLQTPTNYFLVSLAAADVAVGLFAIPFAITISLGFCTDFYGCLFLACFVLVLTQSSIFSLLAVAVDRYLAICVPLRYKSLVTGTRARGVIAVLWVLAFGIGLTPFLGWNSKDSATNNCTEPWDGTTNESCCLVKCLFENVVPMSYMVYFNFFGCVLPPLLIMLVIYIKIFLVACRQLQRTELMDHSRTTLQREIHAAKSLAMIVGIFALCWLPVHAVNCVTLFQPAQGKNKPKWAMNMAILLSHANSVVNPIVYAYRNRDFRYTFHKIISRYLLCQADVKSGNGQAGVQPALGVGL
Briefly: Cellular in vitro reporter gene test for A2b receptor activity (antagonism of NECA). Particulars: recombinant CHO-K1 cells, CRE-luciferase reporter, co-incubation with EC50 concentration of NECA, 3 hours. The format is cell-based. Further details: expressed in transfected cells; host or cells: CHO-K1 (Chinese hamster ovary) with CRE-luciferase reporter. As to the method:
The identification of selective antagonists of the human adenosine A2b receptor and the quantification of the efficacy and selectivity of the compounds according to the invention was carried out with the aid of recombinant cell lines for the human adenosine receptors A1, A2a, A2b and A3. These cell lines were originally derived from an ovarepithelial cell of the hamster (Chinese Hamster Ovary, CHO-K1, American Type Culture Collection, Manassas, Va. 20108, USA). In addition to the respective recombinantly expressed adenosine receptor for testing the efficacy at the A1, A2a and A2b receptors, the cell lines contain a reporter gene construct where expression of the firefly (Photinus pyralis) luciferase is under the control of a promoter which can be activated via intracellular signal cascades by stimulation of the receptors with the (not subtype-selective) adenosine receptor agonist NECA (5′-N-ethylcarboxamidoadenosine) [S. J. Hill, J. G. Baker, S. Rhees, Curr. Opin. Pharmacol. 1, 526-532 (2001)].
In the case of the A2a and A2b cell lines, this is a minimal promoter having a plurality of cAMP-responsive elements (CRE). Stimulation of the Gs-coupled A2b or A2a receptors by NECA ultimately leads, via formation of cAMP, to CRE-dependent induction of luciferase expression, which is detected 3 hours after the start of the incubation with NECA using a detection solution in a suitable luminometer. For testing the antagonists, initially, in a pre-experiment, the concentration of NECA which, at the test day in question, results in half-maximum stimulation of luciferase expression (EC50 concentration) is determined. By joint incubation of this EC50 concentration of NECA with the substances to be tested, it is possible to determine their antagonistic activity.
Table 1 below lists the IC50 values from the A2b receptor assay for individual working examples (in some cases as means of a plurality of independent individual determinations and rounded to two significant figures; it may also be the case here that various independent preparations of the respective working example have been used): […]
A general note: In a reporter assay the amount or activity of a reporter protein is the signal.

As for `Cc1c(CN2CCNC2=O)sc2c1c(=O)n(C1CC1C)c(=O)n2CCSC(F)(F)F` (single isomer, unassigned) [Example 281, 5-Methyl-3-(2-methylcyclopropyl)-6-[(2-oxoimidazolidin-1-yl)methyl]-1-{2-[(trifluoromethyl)sulfanyl]ethyl}thieno[2,3-d]pyrimidine-2,4(1H,3H)-dione], the IC50 was determined as 2.1 nM.

As for `Cc1c(CN2CCNC2=O)sc2c1c(=O)n(C1CC1C)c(=O)n2CC1CCOC1` (single isomer, unassigned) [Example 293, 5-Methyl-3-(2-methylcyclopropyl)-6-[(2-oxoimidazolidin-1-yl)methyl]-1-(tetrahydrofuran-3-ylmethyl)thieno[2,3-d]pyrimidine-2,4(1H,3H)-dione], the half-inhibitory concentration (IC50) was 12 nM.

Regarding `Cc1c(CN2CCNC2=O)sc2c1c(=O)n(C1CC(F)(F)C1)c(=O)n2CCC(F)(F)F` [Example 120, 3-(3,3-Difluorocyclobutyl)-5-methyl-6-[(2-oxoimidazolidin-1-yl)methyl]-1-(3,3,3-trifluoropropyl)thieno[2,3-d]pyrimidine-2,4(1H,3H)-dione], the IC50 was 3.2 nM.

With `Cc1c(Cn2nc[nH]c2=O)sc2c1c(=O)n(C1(C)CC1)c(=O)n2C` [Example 53, 1,5-Dimethyl-3-(1-methylcyclopropyl)-6-[(5-oxo-4,5-dihydro-1H-1,2,4-triazol-1-yl)methyl]thieno[2,3-d]pyrimidine-2,4(1H,3H)-dione], the IC50 was 120 nM.

On to `CO[C@H]1C[C@@H](n2c(=O)c3c(C)c(Cn4nc[nH]c4=O)sc3n(CCC(F)(F)F)c2=O)C1` [Example 158, 3-(cis-3-Methoxycyclobutyl)-5-methyl-6-[(5-oxo-4,5-dihydro-1H-1,2,4-triazol-1-yl)methyl]-1-(3,3,3-trifluoropropyl)thieno[2,3-d]pyrimidine-2,4(1H,3H)-dione], for which the half-maximal inhibitory concentration (IC50) was 180 nM.

Take `COCCn1c(=O)n(C2(C)CC2)c(=O)c2c(C)c(CN3CCNC3=NC#N)sc21` [Example 71, [1-{[1-(2-Methoxyethyl)-5-methyl-3-(1-methylcyclopropyl)-2,4-dioxo-1,2,3,4-tetrahydrothieno[2,3-d]pyrimidin-6-yl]methyl}imidazolidine-2-ylidene]cyanamide]: the half-inhibitory concentration (IC50) worked out at 12 nM.

For `Cc1c(CN2CCNC2=O)sc2c1c(=O)n(C1CC1)c(=O)n2CCOC(C)C` [Example 33, 3-Cyclopropyl-1-(2-isopropoxyethyl)-5-methyl-6-[(2-oxoimidazolidin-1-yl)methyl]thieno[2,3-d]pyrimidine-2,4(1H,3H)-dione], the IC50 turned out to be 100 nM.

Regarding `Cc1c(CN2CCNC2=O)sc2c1c(=O)n(C1CC1C)c(=O)n2CCSC(F)(F)F` (single isomer, unassigned) [Example 280, 5-Methyl-3-(2-methylcyclopropyl)-6-[(2-oxoimidazolidin-1-yl)methyl]-1-{2-[(trifluoromethyl)sulfanyl]ethyl}thieno[2,3-d]pyrimidine-2,4(1H,3H)-dione], the 50% inhibitory concentration (IC50) turned out to be 3.4 nM.

For the molecule `COCCn1c(=O)n([C@H]2C[C@@H](OC)C2)c(=O)c2c(C)c(CN3CCNC3=NC#N)sc21` [Example 160, [1-{[3-(cis-3-Methoxycyclobutyl)-1-(2-methoxyethyl)-5-methyl-2,4-dioxo-1,2,3,4-tetrahydrothieno[2,3-d]pyrimidin-6-yl]methyl}imidazolidin-2-ylidene]cyanamide], the IC50 amounted to 200 nM.

`CCCn1c(=O)n(C2CC2C)c(=O)c2c(C)c(CN3CCNC3=O)sc21` (single isomer, unassigned) [Example 229, 5-Methyl-3-(2-methylcyclopropyl)-6-[(2-oxoimidazolidin-1-yl)methyl]-1-propylthieno[2,3-d]pyrimidine-2,4(1H,3H)-dione]: the half-inhibitory concentration (IC50) stood at 1.2 nM.

`Cc1c(Cn2nc[nH]c2=O)sc2c1c(=O)n([C@H]1C[C@@H]1C)c(=O)n2CC1CCC1` [Example 327, 1-(Cyclobutylmethyl)-5-methyl-3-[(1S,2S)-2-methylcyclopropyl]-6-[(5-oxo-4,5-dihydro-1H-1,2,4-triazol-1-yl)methyl]thieno[2,3-d]pyrimidine-2,4(1H,3H)-dione]: the IC50 stood at 8.5 nM.

As for `Cc1c(Cn2nc[nH]c2=O)sc2c1c(=O)n(C1CC1C)c(=O)n2CCOC(F)(F)F` (racemic) [Example 276, 5-Methyl-3-(2-methylcyclopropyl)-6-[(5-oxo-4,5-dihydro-1H-1,2,4-triazol-1-yl)methyl]-1-[2-(trifluoromethoxy)ethyl]thieno[2,3-d]pyrimidine-2,4(1H,3H)-dione], the concentration for half-maximal inhibition (IC50) came out at 2 nM.

In the case of `CCn1c(=O)n(C2CC2)c(=O)c2c(C)c(Cn3nc[nH]c3=O)sc21` [Example 194, 3-Cyclopropyl-1-ethyl-5-methyl-6-[(5-oxo-4,5-dihydro-1H-1,2,4-triazol-1-yl)methyl]thieno[2,3-d]pyrimidine-2,4(1H,3H)-dione], the IC50 came out at 180 nM.

As to `COCCn1c(=O)n(C2CC3(CCC3)C2)c(=O)c2c(C)c(CN3CCNC3=O)sc21` [Example 179, 1-(2-Methoxyethyl)-5-methyl-6-[(2-oxoimidazolidin-1-yl)methyl]-3-(spiro[3.3]hept-2-yl)thieno[2,3-d]pyrimidine-2,4(1H,3H)-dione], the IC50 was 10 nM.

`Cc1c(Cn2nc[nH]c2=O)sc2c1c(=O)n(C1(C)CC1)c(=O)n2CC1CCC1` [Example 62, 1-(Cyclobutylmethyl)-5-methyl-3-(1-methylcyclopropyl)-6-[(5-oxo-4,5-dihydro-1H-1,2,4-triazol-1-yl)methyl]thieno[2,3-d]pyrimidine-2,4(1H,3H)-dione]: the 50% inhibitory concentration (IC50) worked out at 65 nM.

In the case of `COCCn1c(=O)n(C2CCCC2)c(=O)c2c(C)c(CN3CCNC3=NC#N)sc21` [Example 190, [1-{[3-Cyclopentyl-1-(2-methoxyethyl)-5-methyl-2,4-dioxo-1,2,3,4-tetrahydrothieno[2,3-d]pyrimidin-6-yl]methyl}imidazolidin-2-ylidene]cyanamide], the IC50 came out at 28 nM.

`Cc1c(Cn2nc[nH]c2=O)sc2c1c(=O)n(C1CC1)c(=O)n2CC1CCC(F)(F)C1` (single isomer, unassigned) [Example 211, 3-Cyclopropyl-1-[(3,3-difluorocyclopentyl)methyl]-5-methyl-6-[(5-oxo-4,5-dihydro-1H-1,2,4-triazol-1-yl)methyl]thieno[2,3-d]pyrimidine-2,4(1H,3H)-dione]: the IC50 turned out to be 1300 nM.

Turning to `Cc1c(Cn2nc[nH]c2=O)sc2c1c(=O)n(C1CC1)c(=O)n2CC1CC1(F)F` (racemic) [Example 20, 3-Cyclopropyl-1-[(2,2-difluorocyclopropyl)methyl]-5-methyl-6-[(5-oxo-4,5-dihydro-1H-1,2,4-triazol-1-yl)methyl]thieno[2,3-d]pyrimidine-2,4(1H,3H)-dione (racemate)], the IC50 stood at 130 nM.

In the case of `Cc1c(CN2CCNC2=O)sc2c1c(=O)n(C1(C)CC1)c(=O)n2CC1CC1(F)F` (single isomer, unassigned) [Example 64, 1-[(2,2-Difluorocyclopropyl)methyl]-5-methyl-3-(1-methylcyclopropyl)-6-[(2-oxoimidazolidin-1-yl)methyl]thieno[2,3-d]pyrimidine-2,4(1H,3H)-dione], the IC50 stood at 13 nM.

On to `Cc1c(Cn2cc[nH]c2=O)sc2c1c(=O)n(C1(C)CC1)c(=O)n2CC1CC(F)(F)C1` [Example 216], for which the concentration for half-maximal inhibition (IC50) was found to be 3.2 nM.

Consider `COC(=O)N=C1NCCN1Cc1sc2c(c1C)c(=O)n(C1CC(F)(F)C1)c(=O)n2CCC(F)(F)F` [Example 122, Methyl [1-{[3-(3,3-difluorocyclobutyl)-5-methyl-2,4-dioxo-1-(3,3,3-trifluoropropyl)-1,2,3,4-tetrahydrothieno[2,3-d]pyrimidin-6-yl]methyl}imidazolidin-2-ylidene]carbamate], for which the IC50 stood at 4.2 nM.

On to `Cc1c(CN2CCNC2=O)sc2c1c(=O)n(C1CC1(C)C)c(=O)n2CCC(F)(F)F` (single isomer, unassigned) [Example 102, 3-(2,2-Dimethylcyclopropyl)-5-methyl-6-[(2-oxoimidazolidin-1-yl)methyl]-1-(3,3,3-trifluoropropyl)thieno[2,3-d]pyrimidine-2,4(1H,3H)-dione], for which the half-maximal inhibitory concentration (IC50) was determined as 7.3 nM.

Usually IC50 stands for the concentration needed to halve the response being measured.
